In patent US9982005B2, “Macrolides and methods of their preparation and use” (President and Fellows of Harvard College, priority 2013, dated 2018):
Converted amounts (≈) assume the structure as drawn. Where two headings read alike, the source gives them in different places.

Key:
Type in all cases: cell-based
BS1725 B. subtilis ermC = test: broth dilution MIC, B. subtilis BS1725
Source text: (§1) We have collected MIC data for a total of 50 novel macrolides that this platform has produced against over 21 unique strains of B. subtilis, E. coli, S. aureus, S. pneumoniae, and H. influenzae, including several multidrug-resistant strains, with a special focus on macrolide resistant mechanisms (vide supra). Azithromycin was included as a control macrolide. CLSI standard procedures for broth dilution MIC determination were used. […] These genotypes can be constitutive or inducible. The finding that C4-epi (unnatural) isomers of the “azaketolide” macrolide class have enhanced activities relative to C4 natural isomers is very exciting.

EC878 E. coli tolC = test: broth dilution MIC, E. coli EC878
Source text: as §1

[1] = system: BS1723 B. subtilis BS168 WT wild type; test: broth dilution MIC, B. subtilis BS1723; conditions: BS1723 B. subtilis BS168 WT wild type
Source text: as §1

[2] = system: SA101 S. aureus ATCC29213; test: broth dilution MIC, S. aureus SA101
Source text: as §1

EC107 E. coli ATCC25922 = test: broth dilution MIC, E. coli EC107
Source text: as §1

EC882 E. coli imp = test: broth dilution MIC, E. coli EC882
Source text: as §1

[3] = Bacillus subtilis, BS1725 B. subtilis ermC (+ery)
[4] = Bacillus subtilis, BS1725 B. subtilis ermC (−ery)
[5] = Bacillus subtilis, read-out: MIC
[6] = Staphylococcus aureus, ATCC29213, SA101 S. aureus ATCC29213, read-out: MIC
[7] = Escherichia coli, read-out: MIC

| Compound | MIC (BS1725 B. subtilis ermC; [3]) | MIC (BS1725 B. subtilis ermC; [4]) | MIC (EC878 E. coli tolC; Escherichia coli) | MIC [1, 5] | MIC [2, 6] | MIC (EC107 E. coli ATCC25922; [7]) | MIC (EC882 E. coli imp; Escherichia coli) | MIC (BS1725 B. subtilis ermC; BS1725 B. subtilis ermC (+ery)) | MIC (BS1725 B. subtilis ermC; BS1725 B. subtilis ermC (−ery)) | MIC (EC878 E. coli tolC) | MIC [1] | MIC ([2]; SA101 S. aureus ATCC29213) | MIC (EC107 E. coli ATCC25922) | MIC (EC882 E. coli imp) |
| --- | --- | --- | --- | --- | --- | --- | --- | --- | --- | --- | --- | --- | --- | --- |
| CC[C@H]1OC(=O)[C@H](C)C(=O)C[C@@H](O[C@@H]2OC(C)CC(N(C)C)C2O)[C@](C)(OC)C[C@@H](C)CN[C@H](C)[C@H]2N(CCCCn3cc(-c4cccnn4)nn3)C(=O)O[C@]12C (stereo partly shown) [FSM-10785] | > 32 µg/mL | > 32 µg/mL | 2 µg/mL (≈ 2.5 µM) | > 32 µg/mL | > 32 µg/mL | > 32 µg/mL | 1 µg/mL (≈ 1.25 µM) | – | – | – | – | – | – | – |
| CC[C@H]1OC(=O)[C@H](C)C(=O)C[C@@H](O[C@@H]2OC(C)CC(N(C)C)C2O)[C@](C)(OC)C[C@@H](C)CN[C@H](C)[C@H]2N(CCCCn3cc(-c4ccccn4)nn3)C(=O)O[C@]12C (stereo partly shown) [FSM-10786] | > 32 µg/mL | > 32 µg/mL | 2 µg/mL (≈ 2.5 µM) | > 32 µg/mL | > 32 µg/mL | > 32 µg/mL | 0.25 µg/mL (≈ 0.312 µM) | – | – | – | – | – | – | – |
| CC[C@H]1OC(=O)[C@H](C)C(=O)C[C@@H](O[C@@H]2OC(C)CC(N(C)C)C2O)[C@](C)(OC)C[C@@H](C)CN[C@H](C)[C@H]2N(CCCCn3cc(-c4nccs4)nn3)C(=O)O[C@]12C (stereo partly shown) [FSM-10787] | > 32 µg/mL | > 32 µg/mL | 2 µg/mL (≈ 2.48 µM) | > 32 µg/mL | > 32 µg/mL | 32 µg/mL (≈ 39.7 µM) | 0.125 µg/mL (≈ 0.155 µM) | – | – | – | – | – | – | – |
| CC[C@H]1OC(=O)[C@H](C)C(=O)C[C@@H](O[C@@H]2OC(C)CC(N(C)C)C2O)[C@](C)(OC)C[C@@H](C)CN[C@H](C)[C@H]2N(CCCCn3cc(-c4nc5ccccc5s4)nn3)C(=O)O[C@]12C (stereo partly shown) [FSM-10788] | > 32 µg/mL | > 32 µg/mL | 1 µg/mL (≈ 1.17 µM) | > 32 µg/mL | > 32 µg/mL | > 32 µg/mL | 0.0625 µg/mL (≈ 0.073 µM) | – | – | – | – | – | – | – |
| CC[C@H]1OC(=O)[C@H](C)C(=O)C[C@@H](O[C@@H]2OC(C)CC(N(C)C)C2O)[C@](C)(OC)C[C@@H](C)CN(C(C)=O)[C@H](C)[C@H]2N(CCCCN=[N+]=[N-])C(=O)O[C@]12C (stereo partly shown) [FSM-10789] | > 32 µg/mL | > 32 µg/mL | 4 µg/mL (≈ 5.41 µM) | > 32 µg/mL | > 32 µg/mL | > 32 µg/mL | 8 µg/mL (≈ 10.8 µM) | – | – | – | – | – | – | – |
| CC[C@H]1OC(=O)[C@H](C)C(=O)C[C@@H](O[C@@H]2OC(C)CC(N(C)C)C2O)[C@](C)(OC)C[C@@H](C)CN(C(C)=O)[C@H](C)[C@H]2N(CCCCn3cc(-c4nccs4)nn3)C(=O)O[C@]12C (stereo partly shown) [FSM-10790] | > 32 µg/mL | > 32 µg/mL | 4 µg/mL (≈ 4.72 µM) | > 32 µg/mL | > 32 µg/mL | > 32 µg/mL | 1 µg/mL (≈ 1.18 µM) | – | – | – | – | – | – | – |
| CC[C@H]1OC(=O)[C@H](C)C(=O)C[C@@H](O[C@@H]2OC(C)CC(N(C)C)C2O)[C@](C)(OC)C[C@@H](C)CN(C(C)=O)[C@H](C)[C@H]2N(CCCCn3cc(-c4nc5ccccc5s4)nn3)C(=O)O[C@]12C (stereo partly shown) [FSM-10791] | > 32 µg/mL | > 32 µg/mL | 2 µg/mL (≈ 2.23 µM) | > 32 µg/mL | > 32 µg/mL | > 32 µg/mL | 0.5 µg/mL (≈ 0.557 µM) | – | – | – | – | – | – | – |
| CC[C@H]1OC(=O)[C@H](C)C(=O)C[C@@H](O[C@@H]2OC(C)CC(N(C)C)C2O)[C@](C)(OC)C[C@@H](C)CN(C(C)=O)[C@H](C)[C@H]2N(CCCCn3cc(-c4ccccn4)nn3)C(=O)O[C@]12C (stereo partly shown) [FSM-10792] | > 32 µg/mL | > 32 µg/mL | 4 µg/mL (≈ 4.75 µM) | > 32 µg/mL | > 32 µg/mL | > 32 µg/mL | 1 µg/mL (≈ 1.19 µM) | – | – | – | – | – | – | – |
| CC[C@H]1OC(=O)[C@H](C)C(=O)C[C@@H](O[C@@H]2OC(C)CC(N(C)C)C2O)[C@](C)(OC)C[C@@H](C)CN(C(C)=O)[C@H](C)[C@H]2N(CCCCn3cc(-c4cccnn4)nn3)C(=O)O[C@]12C (stereo partly shown) [FSM-10794] | > 32 µg/mL | > 32 µg/mL | 8 µg/mL (≈ 9.49 µM) | > 32 µg/mL | > 32 µg/mL | > 32 µg/mL | 16 µg/mL (≈ 19 µM) | – | – | – | – | – | – | – |
| CC[C@H]1OC(=O)C(C)(F)C(=O)[C@@H](C)[C@@H](O[C@@H]2OC(C)CC(N(C)C)C2O)[C@](C)(OC)C[C@@H](C)CN(C)[C@H](C)[C@H]2N(CCCCn3cc(-c4nccs4)nn3)C(=O)O[C@]12C (stereo partly shown) [FSM-20717] | – | – | – | – | – | – | – | >32 µg/mL | 8 µg/mL (≈ 9.39 µM) | 1 µg/mL (≈ 1.17 µM) | 16 µg/mL (≈ 18.8 µM) | 16 µg/mL (≈ 18.8 µM) | >32 µg/mL | 1 µg/mL (≈ 1.17 µM) |
| CC[C@H]1OC(=O)C(C)(F)C(=O)[C@@H](C)[C@@H](O[C@@H]2OC(C)CC(N(C)C)C2O)[C@](C)(OC)C[C@@H](C)CN[C@H](C)[C@H]2N(CCCCn3cc(-c4nc5ccccc5s4)nn3)C(=O)O[C@]12C (stereo partly shown) [FSM-20722] | > 32 µg/mL | – | 1 µg/mL (≈ 1.13 µM) | 16 µg/mL (≈ 18 µM) | 8 µg/mL (≈ 9.01 µM) | > 32 µg/mL | 0.5 µg/mL (≈ 0.563 µM) | – | – | – | – | – | – | – |
